The values below come from patent publication US5254677A, “β-galactosidase substrates for cedia” (Boehringer Mannheim GmbH, priority 1990, dated 1993).

Series [1] in a line: Absorption maxima of the chromogen and associated extinction coefficients. The class given is physicochemical. The following applies: 0.1 mole/l. potassium phosphate buffer (pH 7.0); for ε (extinction coefficient): at the absorption maximum of the chromogen. The text has this: 1. Wavelengths of the absorption maxima of the chromogen and the associated extinction coefficients (ε).
Measurement in 0.1 mole/l. potassium phosphate buffer (pH 7.0) at the absorption maximum of the chromogen.

In series [2] the target is T1, β-galactosidase (Escherichia coli, UniProt P00722).
T1 construct: not the CEDIA donor/acceptor fragments
T1 sequence (P00722 2-1024): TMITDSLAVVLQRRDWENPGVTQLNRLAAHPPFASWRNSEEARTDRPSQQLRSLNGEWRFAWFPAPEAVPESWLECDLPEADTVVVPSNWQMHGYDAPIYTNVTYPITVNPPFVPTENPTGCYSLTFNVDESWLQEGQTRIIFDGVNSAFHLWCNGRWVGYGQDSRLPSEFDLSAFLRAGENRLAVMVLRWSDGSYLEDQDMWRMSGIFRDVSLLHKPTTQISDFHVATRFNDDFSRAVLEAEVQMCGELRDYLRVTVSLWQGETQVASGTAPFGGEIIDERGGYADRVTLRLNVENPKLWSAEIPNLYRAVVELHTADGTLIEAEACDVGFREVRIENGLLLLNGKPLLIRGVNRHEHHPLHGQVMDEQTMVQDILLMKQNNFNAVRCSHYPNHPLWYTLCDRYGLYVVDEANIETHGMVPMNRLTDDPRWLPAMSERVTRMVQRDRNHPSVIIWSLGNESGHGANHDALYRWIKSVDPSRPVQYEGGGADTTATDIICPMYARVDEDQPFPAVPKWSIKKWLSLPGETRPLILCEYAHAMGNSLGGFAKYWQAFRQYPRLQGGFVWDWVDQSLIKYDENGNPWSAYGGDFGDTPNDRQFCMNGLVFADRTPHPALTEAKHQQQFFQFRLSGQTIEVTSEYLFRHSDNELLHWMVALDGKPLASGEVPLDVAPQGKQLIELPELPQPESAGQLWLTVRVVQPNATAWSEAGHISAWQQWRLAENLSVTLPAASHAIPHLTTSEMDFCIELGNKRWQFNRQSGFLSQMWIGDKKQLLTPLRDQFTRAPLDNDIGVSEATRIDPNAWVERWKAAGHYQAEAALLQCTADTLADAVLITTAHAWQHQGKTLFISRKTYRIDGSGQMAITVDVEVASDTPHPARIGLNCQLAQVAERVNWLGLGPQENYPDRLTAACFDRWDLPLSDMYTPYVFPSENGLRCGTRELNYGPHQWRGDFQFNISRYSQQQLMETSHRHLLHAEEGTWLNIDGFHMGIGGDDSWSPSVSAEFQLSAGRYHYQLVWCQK
The series is described as follows: Enzyme activity: extinction change per minute with identical amounts of β-galactosidase (sensitivity and enzymatic cleavage rate of substrates). The format is biochemical. The following applies: measured at the absorption maximum of the particular chromogen (405/376/384/408 nm), 0.05M potassium phosphate buffer pH 7.0. The procedure:
2. Sensitivity comparison of the substrates and of their enzymatic cleavage rate.
The extinction change per minute (mE/min.) in the region of the absorption maximum (see Table 1) of the particular chromogen was determined with the use of identical amounts of the enzyme β-galactosidase: for the precise conditions see Example 4, II a) and b).
1) 0.05M potassium phosphate buffer, pH 7.0
2) 10 mmole/liter magnesium chloride solution
3) 69.8% (v/v) mercaptoethanol solution
4) p-galactosidase (Boehringer Mannheim GmbH, order No. 105 031)
5) substrate, 5.9 mg./ml. in solution a)
Pre-incubation: the following substances were pipetted into plastic cuvettes: […]
After mixing, the reaction was initiated: […]
Δ/min. was calculated from the linear range.

The test system of series [3] is β-galactosidase formed from EA22 enzyme acceptor and ED4-thyroxine T4 conjugate. The series is described as follows: T4/CEDIA test (thyroxine T4 as hapten, monoclonal antibodies against T4), gradient of the calibration curve. The format is biochemical. The note with it: Hitachi 704, 37° C., substrate 1 mg./ml., 376 or 415 nm, percentage of 2-nitrophenyl-β-galactoside (=100%). How it is done:
3. Evaluation in the T4/CEDIA (CEDIA with thyroxine T4 as hapten and monoclonal antibodies against thyroxine T4).
The criterion for the evaluation of the individual substrates was the gradient of the calibration curve.
I) Carrying out of the T4/CEDIA test
Definitions: EA=enzyme acceptor; ED=enzyme donor; EA22 =cloned enzyme acceptor for CEDIA; ED4 =cloned enzyme donor for CEDIA. […] The amino acid sequences of these polypeptides are there disclosed.
ΔE/min. was measured in the interval of 9-10 minutes.
Calibration curves were produced for all substrates. Of these curves, the gradients were compared. [formula]
Gradient expressed as percentage value of the 2-nitrophenyl-β-galactoside (=100%) for T4/CEDIA.

Series [4] shares this test system. The following applies: prior art substrate of U.S. Pat. No. 4,708,929; cited from earlier work.

Turning to `O=[N+]([O-])c1ccc(O)c(C(F)(F)F)c1` [2-CF3-4-nitrophenol, 2-Trifluoromethyl-4-nitrophenol], in series [1], the lambda max turned out to be 384 nm and the “ε (extinction coefficient)” value stood at 18800 L/mol/cm.

`N#Cc1cc([N+](=O)[O-])ccc1O` [2-CN-4-nitrophenol, 2-Hydroxy-5-nitrobenzonitrile]: in series [1], the lambda max is 376 nm and the “ε (extinction coefficient)” value is 15700 L/mol/cm.

`O=[N+]([O-])c1ccc(O[C@@H]2O[C@H](CO)[C@H](O)[C@H](O)[C@H]2O)c(C(F)(F)F)c1` [Example 2-CF3-4-NPG, 2-trifluoromethyl-4-nitrophenyl-β-D-galactopyranoside]: the “extinction change per minute” value in series [2] is listed as 0.109 mE/min. For the same molecule, in series [3], the “relative gradient of the calibration curve” value (shortened to “relative gradient”) stood at 528%.

As for `O=[N+]([O-])c1ccccc1O` [2-nitrophenol], in series [1], the lambda max is given as 408 nm and the “ε (extinction coefficient)” value turned out to be 2040 L/mol/cm.

As for `O=[N+]([O-])c1ccc(O[C@@H]2O[C@H](CO)[C@H](O)[C@H](O)[C@H]2O)c(Cl)c1` [Example 2-Cl-4-NPG, 2-chloro-4-nitrophenyl-β-D-galactopyranoside, reference compound], the “extinction change per minute” value in series [2] turned out to be 0.085 mE/min. Besides, in series [3], the “relative gradient” value came out at 494%.

With `O=[N+]([O-])c1ccc(O)c(Cl)c1` [2-Cl-4-nitrophenol], in series [1], the lambda max is listed as 405 nm and the “ε (extinction coefficient)” value turned out to be 16600 L/mol/cm.

With `O=[N+]([O-])c1ccccc1O[C@@H]1O[C@H](CO)[C@H](O)[C@H](O)[C@H]1O` [oNPG, 2-nitrophenyl-β-D-galactopyranoside, reference compound], the “extinction change per minute” value in series [2] stood at 0.024 mE/min. For the same molecule, the “relative gradient” value in series [3] is 100%. The “sensitivity as chromogenic enzyme substrate for CEDIA” value in series [4] was “low sensitivity”.

As for `N#Cc1cc([N+](=O)[O-])ccc1O[C@@H]1O[C@H](CO)[C@H](O)[C@H](O)[C@H]1O` [Example 2-CN-4-NPG, 2-cyano-4-nitrophenyl-β-D-galactopyranoside], the “extinction change per minute” value in series [2] is 0.150 mE/min. Further, the “relative gradient” value in series [3] is 561%.
